Experimental data as given in article PMC9897792, “Discovery of novel 2-(4-(benzyloxy)-5-(hydroxyl) phenyl) benzothiazole derivatives as multifunctional MAO-B inhibitors for the treatment of Parkinson’s disease” (Journal of Enzyme Inhibition and Medicinal Chemistry, 2023).

Legend:
[1] = Stoichiometry of 3h-Fe^2+ complex by molar ratio method; assay type: physicochemical; conditions: absorbance at 385 nm; FeSO4 0–187.5 µM; 3h 75 µM in methanol
Method: Because Fe^2+ played a crucial role in the pathogenesis of PD, the stoichiometry of 3h-Fe^2+ complex was further measured by using molar ratio method. 3h was incubated with various concentrations of FeSO4 (0–187.5 µM), and the electronic spectra were detected.
As the Fe^2+ played important role in the pathogenetic process of PD, the stoichiometry of 3h-Fe^2+ complex was detected by using molar ratio method. In detail, test compound solution (1.0 ml, 75 µM in methanol) was incubated with Fe^2+ solution (1.0 ml, 7.5–187.5 µM in methanol) at 37 °C for 30 min. Then, the mixture was removed from the vial to a quartz cell, and the absorbance of mixture at 200–800 nm was measured by using UV spectrophotometer (Shimadzu UV-1900i).

[2] = tested on: ROS release in LPS-treated BV-2 cells; test: LPS-induced ROS release in BV-2 cells (DCFH-DA probe); assay type: cell-based; conditions: Mus musculus, LPS 1.0 µg/mL, read-out: inhibition rate of LPS-induced ROS release
Method: The inhibitory effect of 3h on LPS-induced ROS release in BV-2 cells in vitro was detected by using 2′,7′-dichlorofluorescein diacetate (DCFH-DA) as probe to quantify the ROS level in LPS-treated BV-2 cells. Noticeably, the fluorescence intensity of control group was relatively low, indicating low level of ROS. […] The fluorescence values were further detected by using microplate reader (Figure 9(B)), and then the inhibition rates were calculated. […] BV-2 cells were incubated with test compound solution (10 µL) for 30 min, then LPS (10 µL, 1.0 µg/ml in PBS) was added to each well, and each well would be incubated for another 30 min at 37 °C. […] The fluorescence was measured with excitation and emission wavelengths at 488 and 525 nm on an inverted fluorescence microscope.

[3] = biological target: T1, MAO-B (Homo sapiens, UniProt P27338); test: MAO-B inhibition, kynuramine method; assay type: biochemical
T1 sequence (P27338 1-520): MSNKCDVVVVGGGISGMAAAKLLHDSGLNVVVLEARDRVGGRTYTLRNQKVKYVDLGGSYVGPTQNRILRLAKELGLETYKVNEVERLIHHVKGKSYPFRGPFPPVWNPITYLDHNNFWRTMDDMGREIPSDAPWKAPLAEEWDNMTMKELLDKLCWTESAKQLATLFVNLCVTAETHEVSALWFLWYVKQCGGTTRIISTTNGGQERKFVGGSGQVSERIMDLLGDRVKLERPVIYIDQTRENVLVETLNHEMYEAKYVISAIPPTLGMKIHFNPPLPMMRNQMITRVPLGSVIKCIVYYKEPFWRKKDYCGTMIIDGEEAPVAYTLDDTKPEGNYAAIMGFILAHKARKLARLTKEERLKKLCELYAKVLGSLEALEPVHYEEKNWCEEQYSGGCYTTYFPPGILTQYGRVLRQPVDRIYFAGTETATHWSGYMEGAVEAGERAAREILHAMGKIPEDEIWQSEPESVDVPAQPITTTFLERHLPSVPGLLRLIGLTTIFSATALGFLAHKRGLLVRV

[4] = tested on: TNF-α production in LPS-activated BV-2 microglia cells; test: LPS-induced TNF-α production in BV-2 cells (ELISA); assay type: cell-based; conditions: Mus musculus, LPS 1.0 µg/mL, read-out: inhibition rate of LPS-induced TNF-α production
Method: ELISA method was carried out to detect the inhibitory effects of 3h on LPS-induced TNF-α production. As shown in Figure 8(B), the level of TNF-α expression was dramatically raised when BV-2 cells were exposed to LPS (1.0 µg/mL).
ELISA and Griess reaction methods were performed to detect the inhibitory effect of 3h on the release of TNF-α and NO in LPS-stimulated BV-2 cells[46]^,[47]. BV-2 cells in the logarithmic phase were seeded into 96-well cell culture plate, and these cells were incubated at 37 °C for 24 h at the atmosphere of 5% CO2. After incubation, the culture solution was replaced by fresh one (90 µL without serum), and test compound solution (10 µL) was added. After addition, the plate was incubated for 30 min, then LPS (10 µL, 1.0 µg/ml in PBS) was added to each well, and the mixture would be incubated for another 24 h at 37 °C. After the final incubation, the supernatants were taken out to measure the level of TNF-α and NO according to the procedures depicted on the kits (kits were purchased from Nanjing Jiancheng Bioengineering Institute).

molar ratio at intersection of straight lines (molar ratio method) [1]: 1.65
IC50 [3]: 62 ± 5 nM
SMILES: Oc1cc(OCc2ccc(F)cc2)ccc1-c1nc2ccccc2s1 [3h, 2-(Benzo[d]thiazol-2-yl)-5-((4-fluorobenzyl)oxy)phenol]
inhibition at […] ([2]; 2.5 µM): 19.8%
inhibition at 10 µM ([2]; 10.0 µM): 78%
inhibition at 0.5 µM ([4]; 0.5 µM): 7.8%
inhibition at […] ([4]; 2.5 µM): 25.7%
inhibition at 10 µM ([4]; 10.0 µM): 52.5%
